{"source": "patent US6355799B1", "about": "“Substituted benzene compounds, process for their preparation, and herbicidal and defoliant compositions containing them” (ISK Americas Incorporated, priority 1997, dated 2002)", "type_in_all_cases": "in vivo", "key": {"[1]": {"tested_on": "redroot pigweed (Amaranthus retroflexus, AMARE)", "assay": "Pre-emerge test, greenhouse herbicide activity screening", "conditions": "rating scale 0-100, 14 days after application", "in_short": "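Sandy loam pots; pre-emerge: sown 1 d pre-spray, surface-watered after, then bottom-watered. Post-emerge: sown 8–21 d before, 2–3 leaf stage, + 0.25% v/v NIS, bottom-watered. Acetone, 187 l/ha track spray, 15–1000 g ai/ha. 0–100 injury score, day 14.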"}, "[2]": {"tested_on": "johnsongrass (Sorghum halepense, SORHA)", "assay": "Post-emerge test, greenhouse herbicide activity screening", "conditions": "rating scale 0-100 (0 no damage, 100 complete death), 14 days after application", "in_short": "(§1)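 Compounds in acetone were track-sprayed at 15-1000 g ai/ha (187 l/ha) on sandy loam pots: pre-emerge one day after seeding, post-emerge at 2-3 leaf stage with 0.25% v/v non-ionic surfactant. Phytotoxicity was rated 14 days later on a 0 (no damage) to 100 (complete death) scale.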"}, "[3]": {"tested_on": "lambsquarters (Chenopodium album, CHEAL)", "assay": "Post-emerge test, greenhouse herbicide activity screening", "conditions": "rating scale 0-100 (0 no damage, 100 complete death), 14 days after application", "in_short": "as §1"}, "[4]": {"tested_on": "velvetleaf (Abutilon theophrasti, ABUTH)", "assay": "Post-emerge test, greenhouse herbicide activity screening", "conditions": "rating scale 0-100 (0 no damage, 100 complete death), 14 days after application", "in_short": "as §1"}, "[5]": {"tested_on": "green foxtail (Setaria viridis, SETVI)", "assay": "Post-emerge test, greenhouse herbicide activity screening", "conditions": "rating scale 0-100 (0 no damage, 100 complete death), 14 days after application", "in_short": "as §1"}, "[6]": {"tested_on": "barnyardgrass (Echinochloa crus-galli, ECHCG)", "assay": "Post-emerge test, greenhouse herbicide activity screening", "conditions": "rating scale 0-100 (0 no damage, 100 complete death), 14 days after application", "in_short": "as §1"}, "[7]": {"tested_on": "sicklepod (Cassia obtusifolia, CASOB)", "assay": "Post-emerge test, greenhouse herbicide activity screening", "conditions": "rating scale 0-100 (0 no damage, 100 complete death), 14 days after application", "in_short": "as §1"}, "[8]": {"tested_on": "common ragweed (Ambrosia artemisizfolia L., AMBEL)", "assay": "Post-emerge test, greenhouse herbicide activity screening", "conditions": "rating scale 0-100 (0 no damage, 100 complete death), 14 days after application", "in_short": "as §1"}, "[9]": {"tested_on": "redroot pigweed (Amaranthus retroflexus, AMARE)", "assay": "Post-emerge test, greenhouse herbicide activity screening", "conditions": "rating scale 0-100 (0 no damage, 100 complete death), 14 days after application", "in_short": "as §1"}, "[10]": {"tested_on": "ivyleaf morningglory (Ipomoea hederacea, IPOHE)", "assay": "Post-emerge test, greenhouse herbicide activity screening", "conditions": "rating scale 0-100 (0 no damage, 100 complete death), 14 days after application", "in_short": "as §1"}, "[11]": {"tested_on": "large crabgrass (Digitaria sanguinalis, DIGSA)", "assay": "Post-emerge test, greenhouse herbicide activity screening", "conditions": "rating scale 0-100 (0 no damage, 100 complete death), 14 days after application", "in_short": "as §1"}, "[12]": {"tested_on": "field corn (Zea mays L., var. Dekalb 535, CORN)", "assay": "Pre-emerge test, crop safety", "conditions": "rating scale 0-100, 14 days after application", "in_short": "(§2)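 Visual ratings on a 0-100 scale (0 no damage, 100 all plants dead) were taken at 14 days after treatment. Rates of 15-1000 g ai/ha in acetone, 187 l/ha, were sprayed onto soil one day after planting (pre-emerge) or onto 2-3 leaf plants with 0.25% v/v surfactant (post-emerge).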"}, "[13]": {"tested_on": "upland rice (Oryza sp., var. Tebonnet, RICE)", "assay": "Pre-emerge test, crop safety", "conditions": "rating scale 0-100, 14 days after application", "in_short": "as §2"}, "[14]": {"tested_on": "johnsongrass (Sorghum halepense, SORHA)", "assay": "Pre-emerge test, greenhouse herbicide activity screening", "conditions": "rating scale 0-100, 14 days after application", "in_short": "(§3)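 Rating: 0–100 visual injury, 14 DAA. Application: acetone, 187 l/ha, 15–1000 g ai/ha, flat-fan track sprayer with nozzle 40–45 cm above soil or canopy. Post-emerge runs used 0.25% v/v surfactant on 2–3 leaf plants.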"}, "[15]": {"tested_on": "lambsquarters (Chenopodium album, CHEAL)", "assay": "Pre-emerge test, greenhouse herbicide activity screening", "conditions": "rating scale 0-100, 14 days after application", "in_short": "as §3"}, "[16]": {"tested_on": "velvetleaf (Abutilon theophrasti, ABUTH)", "assay": "Pre-emerge test, greenhouse herbicide activity screening", "conditions": "rating scale 0-100, 14 days after application", "in_short": "as §3"}, "[17]": {"tested_on": "green foxtail (Setaria viridis, SETVI)", "assay": "Pre-emerge test, greenhouse herbicide activity screening", "conditions": "rating scale 0-100, 14 days after application", "in_short": "as §3"}, "[18]": {"tested_on": "barnyardgrass (Echinochloa crus-galli, ECHCG)", "assay": "Pre-emerge test, greenhouse herbicide activity screening", "conditions": "rating scale 0-100, 14 days after application", "in_short": "as §3"}, "[19]": {"tested_on": "sicklepod (Cassia obtusifolia, CASOB)", "assay": "Pre-emerge test, greenhouse herbicide activity screening", "conditions": "rating scale 0-100, 14 days after application", "in_short": "as §3"}, "[20]": {"tested_on": "common ragweed (Ambrosia artemisizfolia L., AMBEL)", "assay": "Pre-emerge test, greenhouse herbicide activity screening", "conditions": "rating scale 0-100, 14 days after application", "in_short": "as §3"}, "[21]": {"tested_on": "ivyleaf morningglory (Ipomoea hederacea, IPOHE)", "assay": "Pre-emerge test, greenhouse herbicide activity screening", "conditions": "rating scale 0-100, 14 days after application", "in_short": "as §3"}, "[22]": {"tested_on": "large crabgrass (Digitaria sanguinalis, DIGSA)", "assay": "Pre-emerge test, greenhouse herbicide activity screening", "conditions": "rating scale 0-100, 14 days after application", "in_short": "as §3"}, "[23]": {"tested_on": "field corn (Zea mays L., var. Dekalb 535, CORN)", "assay": "Post-emerge test, crop safety", "conditions": "rating scale 0-100 (0 no damage, 100 complete death), 14 days after application", "in_short": "(§4)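 Plants grown in 10 cm pots of sandy loam mix received acetone-dissolved compounds through a moving flat-fan nozzle. Doses ranged from 15 to 1000 g ai/ha. Pre-emerge pots were seeded one day earlier, post-emerge pots 8–21 days earlier. Fourteen days on, each pot was graded 0–100 for damage.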"}, "[24]": {"tested_on": "upland rice (Oryza sp., var. Tebonnet, RICE)", "assay": "Post-emerge test, crop safety", "conditions": "rating scale 0-100 (0 no damage, 100 complete death), 14 days after application", "in_short": "as §4"}}}
{"smiles": "COc1c(Cl)cc(F)c(-n2c(=O)cc(C(F)(F)F)n(C)c2=O)c1CC(Cl)C(=O)OCC(F)(F)F", "note": "(stereo not drawn) [14-21]", "values": [{"measurement": "Pre-emerge herbicidal activity, phytotoxicity rating AMARE", "setting": "[1]; 63 g ai/ha", "value": 60}, {"measurement": "Pre-emerge herbicidal activity, phytotoxicity rating AMARE", "setting": "[1]; 250 g ai/ha", "value": 95}, {"measurement": "Post-emerge Herbicidal Activity, phytotoxicity rating SORHA", "setting": "[2]; Rate 63 g ai/ha", "value": 10}, {"measurement": "Post-emerge Herbicidal Activity, phytotoxicity rating SORHA", "setting": "[2]; Rate 250 g ai/ha", "value": 70}, {"measurement": "Post-emerge Herbicidal Activity, phytotoxicity rating CHEAL", "setting": "[3]; Rate 63 g ai/ha", "value": 70}, {"measurement": "Post-emerge Herbicidal Activity, phytotoxicity rating CHEAL", "setting": "[3]; Rate 250 g ai/ha", "value": 95}, {"measurement": "Post-emerge Herbicidal Activity, phytotoxicity rating ABUTH", "setting": "[4]; Rate 63 g ai/ha", "value": 100}, {"measurement": "Post-emerge Herbicidal Activity, phytotoxicity rating ABUTH", "setting": "[4]; Rate 250 g ai/ha", "value": 95}, {"measurement": "Post-emerge Herbicidal Activity, phytotoxicity rating SETVI", "setting": "[5]; Rate 63 g ai/ha", "value": 10}, {"measurement": "Post-emerge Herbicidal Activity, phytotoxicity rating SETVI", "setting": "[5]; Rate 250 g ai/ha", "value": 40}, {"measurement": "Post-emerge Herbicidal Activity, phytotoxicity rating ECHCG", "setting": "[6]; Rate 63 g ai/ha", "value": 99}, {"measurement": "Post-emerge Herbicidal Activity, phytotoxicity rating ECHCG", "setting": "[6]; Rate 250 g ai/ha", "value": 100}, {"measurement": "Post-emerge Herbicidal Activity, phytotoxicity rating CASOB", "setting": "[7]; Rate 63 g ai/ha", "value": 30}, {"measurement": "Post-emerge Herbicidal Activity, phytotoxicity rating CASOB", "setting": "[7]; Rate 250 g ai/ha", "value": 60}, {"measurement": "Post-emerge Herbicidal Activity, phytotoxicity rating AMBEL", "setting": "[8]; Rate 63 g ai/ha", "value": 50}, {"measurement": "Post-emerge Herbicidal Activity, phytotoxicity rating AMBEL", "setting": "[8]; Rate 250 g ai/ha", "value": 95}, {"measurement": "Post-emerge Herbicidal Activity, phytotoxicity rating AMARE", "setting": "[9]; Rate 63 g ai/ha", "value": 90}, {"measurement": "Post-emerge Herbicidal Activity, phytotoxicity rating AMARE", "setting": "[9]; Rate 250 g ai/ha", "value": 100}, {"measurement": "Post-emerge Herbicidal Activity, phytotoxicity rating IPOHE", "setting": "[10]; Rate 63 g ai/ha", "value": 40}, {"measurement": "Post-emerge Herbicidal Activity, phytotoxicity rating IPOHE", "setting": "[10]; Rate 250 g ai/ha", "value": 50}, {"measurement": "Post-emerge Herbicidal Activity, phytotoxicity rating DIGSA", "setting": "[11]; Rate 63 g ai/ha", "value": 70}, {"measurement": "Post-emerge Herbicidal Activity, phytotoxicity rating DIGSA", "setting": "[11]; Rate 250 g ai/ha", "value": 98}, {"measurement": "Pre-emerge phytotoxicity rating, crop damage CORN", "setting": "[12]; 63 g ai/ha", "value": 0}, {"measurement": "Pre-emerge phytotoxicity rating, crop damage CORN", "setting": "[12]; 250 g ai/ha", "value": 70}, {"measurement": "Pre-emerge phytotoxicity rating, crop damage RICE", "setting": "[13]; 63 g ai/ha", "value": 0}, {"measurement": "Pre-emerge phytotoxicity rating, crop damage RICE", "setting": "[13]; 250 g ai/ha", "value": 20}, {"measurement": "Pre-emerge herbicidal activity, phytotoxicity rating SORHA", "setting": "[14]; 63 g ai/ha", "value": 0}, {"measurement": "Pre-emerge herbicidal activity, phytotoxicity rating SORHA", "setting": "[14]; 250 g ai/ha", "value": 35}, {"measurement": "Pre-emerge herbicidal activity, phytotoxicity rating CHEAL", "setting": "[15]; 63 g ai/ha", "value": 20}, {"measurement": "Pre-emerge herbicidal activity, phytotoxicity rating CHEAL", "setting": "[15]; 250 g ai/ha", "value": 75}, {"measurement": "Pre-emerge herbicidal activity, phytotoxicity rating ABUTH", "setting": "[16]; 63 g ai/ha", "value": 40}, {"measurement": "Pre-emerge herbicidal activity, phytotoxicity rating ABUTH", "setting": "[16]; 250 g ai/ha", "value": 100}, {"measurement": "Pre-emerge herbicidal activity, phytotoxicity rating SETVI", "setting": "[17]; 63 g ai/ha", "value": 0}, {"measurement": "Pre-emerge herbicidal activity, phytotoxicity rating SETVI", "setting": "[17]; 250 g ai/ha", "value": 0}, {"measurement": "Pre-emerge herbicidal activity, phytotoxicity rating ECHCG", "setting": "[18]; 63 g ai/ha", "value": 0}, {"measurement": "Pre-emerge herbicidal activity, phytotoxicity rating ECHCG", "setting": "[18]; 250 g ai/ha", "value": 20}, {"measurement": "Pre-emerge herbicidal activity, phytotoxicity rating CASOB", "setting": "[19]; 63 g ai/ha", "value": 0}, {"measurement": "Pre-emerge herbicidal activity, phytotoxicity rating CASOB", "setting": "[19]; 250 g ai/ha", "value": 10}, {"measurement": "Pre-emerge herbicidal activity, phytotoxicity rating AMBEL", "setting": "[20]; 63 g ai/ha", "value": 0}, {"measurement": "Pre-emerge herbicidal activity, phytotoxicity rating AMBEL", "setting": "[20]; 250 g ai/ha", "value": 40}, {"measurement": "Pre-emerge herbicidal activity, phytotoxicity rating IPOHE", "setting": "[21]; 63 g ai/ha", "value": 0}, {"measurement": "Pre-emerge herbicidal activity, phytotoxicity rating IPOHE", "setting": "[21]; 250 g ai/ha", "value": 0}, {"measurement": "Pre-emerge herbicidal activity, phytotoxicity rating DIGSA", "setting": "[22]; 63 g ai/ha", "value": 0}, {"measurement": "Pre-emerge herbicidal activity, phytotoxicity rating DIGSA", "setting": "[22]; 250 g ai/ha", "value": 70}, {"measurement": "Post-emerge phytotoxicity rating CORN (crop damage)", "setting": "[23]; Rate 63 g ai/ha", "value": 50}, {"measurement": "Post-emerge phytotoxicity rating CORN (crop damage)", "setting": "[23]; Rate 250 g ai/ha", "value": 100}, {"measurement": "Post-emerge phytotoxicity rating RICE (crop damage)", "setting": "[24]; Rate 63 g ai/ha", "value": 10}, {"measurement": "Post-emerge phytotoxicity rating RICE (crop damage)", "setting": "[24]; Rate 250 g ai/ha", "value": 45}]}
